Results on three compounds are retold here after US7666884B2, “N-(2-substituted phenyl)-N-methoxycarbamates and their preparation and use thereof” (priority 2005, dated 2010).

The subject of data set [1] is wheat powdery mildew. Kind of data set: Fungicidal activity tests against wheat powdery mildew (wheat seedlings sprayed at 200 mg/L, greenhouse). The following applies: 200 mg/L spray, inoculated 24 hours later, visual assessment 7 days after treatment. Type of data set: in vivo. How it is done:
Compounds for test were weighed quantitatively and dissolved into acetone of suitable volume (acetone's volume is 10% of the whole solution's volume), then diluted by water containing 0.1% (volume percent, the same below) Tween 80, into 200 mg/L. By turntable crop sprayer, wheat seedlings with 1 leaf and 1 core were treated under the spray pressure of 1.5 kg/cm^2 and the spray volume of about 1000 L/hm^2, then naturally dry, 24 hours later wheat powdery mildew spore was inoculated, and then continue being incubated in greenhouse. Assessment of efficacy was carried out by visual observation 7 days later after treatment.

Data set [2] relates to wheat powdery mildew. Kind of data set: Protective activity test against wheat powdery mildew. Type of data set: in vivo. As to conditions: for control %: protective, assessed 7 days later.
The next data set has as its system Rice false smut. Kind of data set: In vitro fungicidal activity test, PDA mycelium growth inhibition method. The class given is cell-based.
The subject of data set [3] is corn curvalaria leaf spot. The data set is described as above. Type of data set: cell-based.
Another data set has as its system Cucumber anthracnose. The description is as above. Type of data set: cell-based.
The next data set has as its system Cucumber scab. The description is as above. The class given is cell-based. How it is done: (§1) PDA mycelium growth inhibition method was used for this test. Compound 13 (content 95%) was weighed quantitatively and dissolved in acetone of suitable volume (acetone's volume is 10% of the whole solution's volume), then diluted with water containing 0.1% Tween 80 into the solution of the medicament at the needed concentration, and then diluted with the same water into a series of concentration for tests. The medicament for test diluted by water was added quantitatively into the heating full-nutrition culture medium, to form culture medium including the medicament at a series of concentration, and then poured into 9-cm culture dish, after cooling, inoculated with the pathogen cake (diameter 0.5 cm) for test which was incubated in vitro, each treatment was repeated tree times. After treatment, placed in growth chamber in 27° C., 3-4 days later, observe the growth of the blank contrast fungi colony, the diameter of fungi colony was investigated and measured, and corrected inhibition ratio was calculated.

Another data set concerns Wheat root rot. The data set is described as above. The class given is cell-based. On the procedure:
as §1

A further data set relates to Cucumber wilt blight. The description is as above. The class given is cell-based. As to conditions: 27° C., 3-4 days, read-out: Effect of mycelium growth inhibition (%).
The test system of a further data set is Rice blast. Kind of data set: microbe, parasite or virus in culture. The class given is cell-based.
The subject of data set [4] is Wheat Fusarium Head Blight. Kind of data set: microbe, parasite or virus in culture. Type of data set: cell-based. The following applies: read-out: Effect of mycelium growth inhibition (%).
The subject of data set [5] is wheat powdery mildew. Kind of data set: Curative activity test against wheat powdery mildew. The class given is in vivo. As to conditions: for control %: curative, sprayed 4 days after inoculation.
In a further data set the test system is Rice sheath blight. Kind of data set: In vitro fungicidal activity test, PDA mycelium growth inhibition method. Type of data set: cell-based.
Setting [6] is: 0.1 mg/L, 27° C., 3-4 days, read-out: Effect of mycelium growth inhibition (%).
The mark [7] stands for this setting: 1 mg/L, 27° C., 3-4 days, read-out: Effect of mycelium growth inhibition (%).
Where [8] appears, read: 10 mg/L, 27° C., 3-4 days, read-out: Effect of mycelium growth inhibition (%).
[9] abbreviates: Pyricularia oryzae, read-out: Effect of mycelium growth inhibition (%).

Structures are written as SMILES.

For orientation: melting point means the temperature, or range, at which the solid turns liquid. For `COC(=O)N(OC)c1ccccc1CNc1c(Cl)c(F)nc(F)c1Cl` [Compound 49, Methyl N-(2-((3,5-dichloro-2,6-difluoropyridin-4-yl)aminomethyl)phenyl)-N-methoxycarbamate], the melting point fell in the range of 82 to 83 °C. Besides, in the data set on wheat powdery mildew [1], the “control %” value turned out to be 85%.

By inhibition is commonly meant the relative decrease from the control value, in per cent. With `COC(=O)N(OC)c1ccccc1COc1nc(Cl)c(Cl)cc1Cl` [Compound 13, Methyl N-methoxy-N-(2-((3,5,6-trichloropyridin-2-yl)oxymethyl)phenyl)carbamate], the melting point lay within 94 to 95 °C. Further, the control % with wheat powdery mildew [2] (concentration 0.78 mg/L) is listed as 100%. The compound further yielded a control % in the data set on wheat powdery mildew [2] (concentration 1.56 mg/L) of 100%. For the same compound, in the data set with wheat powdery mildew [2] (concentration 3.125 mg/L), the control % is recorded as 100%. Further, the control % in the data set on wheat powdery mildew [2] (concentration 6.25 mg/L) came out at 100%. In addition, in the data set with wheat powdery mildew [2] (concentration 12.5 mg/L), the control % is 100%. In addition, the “preventative activity compared with the standard chemical (in words)” value with wheat powdery mildew [2] (versus Kresoxim-methyl, 0.78-12.5 mg/L) is listed as “obviously better than the one of the standard chemical”. Also, the inhibition at 0.1 µg/mL with Rice false smut (Rice false smut, 0.1 mg/L, 27° C., 3-4 days, read-out: Effect of mycelium growth inhibition (%)) was found to be 19.5%. For the same compound, in the data set on Rice false smut (Rice false smut, 1 mg/L, 27° C., 3-4 days, read-out: Effect of mycelium growth inhibition (%)), the inhibition at 1 µg/mL stood at 42.8%. Also, in the data set on Rice false smut (Rice false smut, 10 mg/L, 27° C., 3-4 days, read-out: Effect of mycelium growth inhibition (%)), the inhibition at 10 µg/mL was determined as 79.2%. For the same compound, the “fungicidal activity (in words)” value in the data set on Rice false smut (rice false smut, in vitro) is on record as “outstanding”. Also, the inhibition at 0.1 µg/mL in [3] (setting [6]) turned out to be 55.4%. Besides, in data set [3] (setting [7]), the inhibition at 1 µg/mL worked out at 56.2%. Also, the inhibition at 10 µg/mL in data set [3] (setting [8]) came to 70.2%. In addition, the “fungicidal activity (in words)” value in data set [3] (in vitro) was “outstanding”. Besides, the inhibition at 0.1 µg/mL in the data set on Cucumber anthracnose (Cucumber anthracnose, 0.1 mg/L, 27° C., 3-4 days, read-out: Effect of mycelium growth inhibition (%)) is 42.8%. In the data set with Cucumber anthracnose (Cucumber anthracnose, 1 mg/L, 27° C., 3-4 days, read-out: Effect of mycelium growth inhibition (%)), the inhibition at 1 µg/mL stood at 62.8%. Besides, the inhibition at 10 µg/mL in the data set with Cucumber anthracnose (Cucumber anthracnose, 10 mg/L, 27° C., 3-4 days, read-out: Effect of mycelium growth inhibition (%)) worked out at 72.4%. In addition, in the data set on Cucumber anthracnose (cucumber anthracnose, in vitro), the “fungicidal activity (in words)” value is listed as “outstanding”. Besides, the “control %” value with wheat powdery mildew [1] is 100%. Further, the inhibition at 0.1 µg/mL in the data set on Cucumber scab (setting [6]) was found to be 28.7%. In addition, the inhibition at 1 µg/mL with Cucumber scab (setting [7]) turned out to be 50%. Moreover, in the data set on Cucumber scab (setting [8]), the inhibition at 10 µg/mL amounted to 65%. The “fungicidal activity (in words)” value in the data set with Cucumber scab (in vitro) is on record as “outstanding”. The inhibition at 0.1 µg/mL in the data set on Wheat root rot (Wheat root rot, 0.1 mg/L, 27° C., 3-4 days, read-out: Effect of mycelium growth inhibition (%)) was determined as 32.6%. For the same compound, in the data set on Wheat root rot (Wheat root rot, 1 mg/L, 27° C., 3-4 days, read-out: Effect of mycelium growth inhibition (%)), the inhibition at 1 µg/mL is 46.3%. In addition, in the data set on Wheat root rot (Wheat root rot, 10 mg/L, 27° C., 3-4 days, read-out: Effect of mycelium growth inhibition (%)), the inhibition at 10 µg/mL stood at 61.1%. In addition, the “fungicidal activity (in words)” value with Wheat root rot (wheat root rot, in vitro) is “outstanding”. In the data set with Cucumber wilt blight (0.1 mg/L), the inhibition at 0.1 µg/mL was 27.1%. In addition, the inhibition at 1 µg/mL with Cucumber wilt blight (1 mg/L) stood at 33.6%. Moreover, in the data set on Cucumber wilt blight (10 mg/L), the inhibition at 10 µg/mL was 51.4%. Further, in the data set on Rice blast (setting [9]), the inhibition at 0.1 µg/mL was 36.6%, the inhibition at 1 µg/mL turned out to be 62.6% and the inhibition at 10 µg/mL is 77.2%. For the same compound, in the data set on Rice blast (rice blast, in vitro), the “fungicidal activity (in words)” value was “outstanding”. Besides, in [4], the inhibition at 0.1 µg/mL is 20.3%, the inhibition at 1 µg/mL was determined as 21.1% and the inhibition at 10 µg/mL was determined as 42.9%. In the data set with wheat powdery mildew [5] (concentration 0.78 mg/L), this compound displayed a control % of 10%. The control % in the data set with wheat powdery mildew [5] (concentration 1.56 mg/L) is 35%. This compound also came in with a control % in the data set with wheat powdery mildew [5] (concentration 3.125 mg/L) of 70%. For the same compound, the control % in the data set on wheat powdery mildew [5] (concentration 6.25 mg/L) came out at 100%. The same compound showed a control % in the data set on wheat powdery mildew [5] (concentration 12.5 mg/L) of 100%. Also, in the data set with wheat powdery mildew [5] (versus kresoxim-methyl), the “curative activity compared with the standard chemical (in words)” value is given as “better than the one of standard chemical”. For the same compound, in the data set with Rice sheath blight (Rice sheath blight, 0.1 mg/L, 27° C., 3-4 days, read-out: Effect of mycelium growth inhibition (%)), the inhibition at 0.1 µg/mL is 42.7%. The inhibition at 1 µg/mL in the data set with Rice sheath blight (Rice sheath blight, 1 mg/L, 27° C., 3-4 days, read-out: Effect of mycelium growth inhibition (%)) amounted to 59.2%. Moreover, in the data set on Rice sheath blight (Rice sheath blight, 10 mg/L, 27° C., 3-4 days, read-out: Effect of mycelium growth inhibition (%)), the inhibition at 10 µg/mL came to 78.6%. Besides, the “fungicidal activity (in words)” value in the data set with Rice sheath blight (rice sheath blight, in vitro) was “outstanding”.

Take `CO/N=C(/C(=O)OC)c1ccccc1COc1ccccc1C` [Kresoxim-methyl, reference compound]: the control % with wheat powdery mildew [2] (concentration 0.78 mg/L) was determined as 15%; in the data set on wheat powdery mildew [2] (concentration 1.56 mg/L) it was 40%; in the data set with wheat powdery mildew [2] (concentration 3.125 mg/L), 70%; in the data set with wheat powdery mildew [2] (concentration 6.25 mg/L), 98%; in the data set on wheat powdery mildew [2] (concentration 12.5 mg/L) it was 100%; in the data set with wheat powdery mildew [5] (concentration 0.78 mg/L) it was 0%. Also, the control % in the data set on wheat powdery mildew [5] (concentration 1.56 mg/L) was determined as 10%; in the data set on wheat powdery mildew [5] (concentration 3.125 mg/L) it was 15%; in the data set on wheat powdery mildew [5] (concentration 6.25 mg/L), 75%; in the data set with wheat powdery mildew [5] (concentration 12.5 mg/L), 100%.
